Data on 28 molecules can be found in US6384063B1, “Compound having effect of promoting neuron differentiation” (Nippon Kayaku Kabushiki Kaisha, priority 1997, dated 2002).

“Also recorded” adds a separate entry of the source.

The first series relates to PC 12 cells.
Experiment: not given
As to conditions: qualitative, background art; cited from earlier work.
In the case of `CN[C@@H]1C[C@H]2O[C@@](C)([C@@H]1OC)n1c3ccccc3c3c4c(c5c6ccccc6n2c5c31)C(=O)NC4` [staurosporin], the “PC 12 cell differentiation promoting activity” value is listed as “found to have the PC 12 cell differentiation promoting activity”.

The subject of another series is PC12 cells. Description: Neuron-like neurite extension on PC12 cells. The class given is cell-based, rat. As to conditions: morphological change observed microscopically one day after adding test compound. The source says:
Neuron-like neurite extension effect of the compounds of this invention on PC12 cells
The effect of the compounds of the invention was examined by a modification of the method of Green et al., Ann. Rev. Neurosci., 3, 353, 1980, and evaluated in terms of morphological change of PC12 cells and a level of the change. That is, PC12 cells were inoculated on Dulbecco-modified Eagle's medium supplemented with 10% calf fetal serum and 10% equine serum in approximately 100,000 cells/ml. The cells were incubated at 37° C. overnight in 5% CO2 using collagen-coated 96 well multiplates. Morphological change of the cells was microscopically observed one day after the test compound was added to each well under this conditions.
The minimum effective dose (MED, g/ml) of each compound on PC12 cells that caused neuron-like neurite extension is shown in Table 2 below.
Molecule “2-methyl-4-oxo-4-phenyl-3-(1-piperazinyl)methylbutyric Acid [Compound 41F]” gave a Minimum effective dose (MED) to cause neuron-like neurite extension on PC12 cells of 6.3 µg/mL.
In the case of “3-{2-(acetylamino)ethylthio}methyl-4-(4-methylphenyl)-4-oxobutyric Acid [Compound 12D]”, the Minimum effective dose (MED) to cause neuron-like neurite extension on PC12 cells was determined as 13 µg/mL.
The same measure, in the same setting: the same measure for “4-(1-piperazinyl)methyl-5-oxo-5-phenylpentanoic Acid [Compound 42F]”: 1.6 µg/mL.
The same measure, in the same setting: the same measure for “4-(4-methoxyphenyl)-4-oxo-3-(1-piperidyl)methylbutyric Acid [Compound 3F]”: 3.1 µg/mL; for “4-(4-methylphenyl)-4-oxo-3-(1-piperidyl)methylbutyric Acid [Compound 2F]”: 3.1 µg/mL.
The same measure, in the same setting: as for `COC(=O)[C@@H]1CCC(=O)[C@H]1CSC[C@H](NC(C)=O)C(=O)N1CCCC1` (relative stereo) [Compound 5B, trans-2-[(2R)-{2-acetylamino-3-oxo-3-(1-pyrrolidinyl)}propylthio]methyl-3-methoxycarbonyl-1-cyclopentanone], the figure is 0.8 µg/mL.
`COC(=O)[C@@H]1CCCN1C(=O)[C@H](CSC[C@@H]1C(=O)CC[C@H]1C(=O)O)NC(C)=O` (relative stereo) [Compound 6B, trans-2-[(2R)-[2-acetylamino-3-{1-((2S)-2-methoxycarbonylpyrrolidinyl)}-3-oxo]propylthio]methyl-3-oxo-1-cyclopentanecarboxylic Acid] showed a Minimum effective dose (MED) to cause neuron-like neurite extension on PC12 cells of 1.6 µg/mL.
The molecule `COC(=O)[C@@H]1CCN1C(=O)[C@H](CSC[C@@H]1C(=O)CC[C@H]1C(=O)O)NC(C)=O` (relative stereo) [Compound 7B, trans-2-[(2R)-[2-acetylamino-3-{1-((2S)-2-methoxycarbonylazetidinyl)}-3-oxo]propylthio]methyl-3-oxo-1-cyclopentanecarboxylic Acid] had a Minimum effective dose (MED) to cause neuron-like neurite extension on PC12 cells of 3.1 µg/mL.
As for `CC(=O)NC(CCCCCCCCCCSC[C@@H]1C(=O)CC[C@H]1C(=O)O)C(=O)O` (relative stereo) [Compound 9B, trans-2-[(11-acetylamino-11-carboxy)undecylthio]methyl-3-oxo-1-cyclopentanecarboxylic acid], the Minimum effective dose (MED) to cause neuron-like neurite extension on PC12 cells was 6.3 µg/mL.
On the same count and under the same terms, the same measure for `CC(=O)N[C@@H](CSCC1CC(C(=O)O)CC1=O)C(=O)O` (stereo partly drawn) [Compound 1A, 4-[(2R)-(2-acetylamino-2-carboxy)ethylthio]methyl-3-oxo-1-cyclopentanecarboxylic Acid]: 3.2 µg/mL.
The same measure, in the same setting: the same measure for `CC(=O)N[C@@H](CSC[C@@H]1C(=O)CC[C@H]1C(=O)O)C(=O)N1CCCC1` [Compound 1B, (1R,2S)-2-[(2R)-{2-acetylamino-3-oxo-3-(1-pyrrolidinyl)}propylthio]methyl-3-oxo-1-cyclopentanecarboxylic Acid]: 3.2 µg/mL.
On the same count and under the same terms, the same measure for `COC(=O)[C@H](CSCC1CC(C(=O)O)CC1=O)NC(C)=O` (stereo partly drawn) [Compound 2A, 4-[(2R)-(2-acetylamino-2-methoxycarbonyl)ethylthio]methyl-3-oxo-1-cyclopentanecarboxylic Acid]: 3.2 µg/mL; for `CC(=O)N[C@@H](CSC[C@@H]1C(=O)CC[C@H]1C(=O)O)C(=O)N1CCOCC1` [Compound 2B, (1R,2S)-2-[(2R)-{2-acetylamino-3-(4-morpholinyl)-3-oxo}propylthio]methyl-3-oxo-1-cyclopentanecarboxylic Acid]: 1.6 µg/mL; for `CC(=O)N[C@@H](CSCC1=C[C@H](O)CC1=O)C(=O)O` [Compound 2C, (4R)-2-[(2R)-(2-acetylamino-2-carboxy)ethylthio]methyl-4-hydroxy-2-cyclopenten-1-one]: 6.3 µg/mL.
`COC(=O)[C@H](CSCC1C(=O)c2ccccc2C1C(=O)O)NC(C)=O` (stereo partly drawn) [Compound 6A, 2-((2R)-(2-acetylamino-2-methoxycarbonyl)ethylthio)methyl-3-oxo-1-indanecarboxylic Acid] gave a Minimum effective dose (MED) to cause neuron-like neurite extension on PC12 cells of 25 µg/mL.
The same measure, in the same setting: the same measure for `CN1CCN(CC(CC(=O)O)C(=O)c2ccccc2)CC1` (stereo not shown) [Compound 6F, 3-{1-(4-methylpiperazinyl)}methyl-4-oxo-4-phenylbutyric acid]: 3.1 µg/mL; for `CC(=O)N[C@@H](CSCC(CC(=O)O)C(=O)c1ccccc1)C(=O)O` (stereo partly drawn) [Compound 7D, 3-[(2R)-(2-acetylamino-2-carboxy)ethylthio]methyl-4-oxo-4-phenylbutyric Acid]: 13 µg/mL.
The same measure, in the same setting: as for `COC(=O)[C@H](CSCC(CC(=O)O)C(=O)c1ccccc1)NC(C)=O` (stereo partly drawn) [Compound 8D, 3-[(2R)-(2-acetylamino-2-methoxycarbonyl)ethylthio]methyl-4-oxo-4-phenylbutyric Acid], the figure is 6.3 µg/mL.
`COC(=O)[C@H](CSCC(CC(=O)O)C(=O)c1ccc(OC)cc1)NC(C)=O` (stereo partly drawn) [Compound 9D, 3-[(2R)-(2-acetylamino-2-methoxycarbonyl)ethylthio]methyl-4-(4-methoxyphenyl)-4-oxobutyric Acid] showed a Minimum effective dose (MED) to cause neuron-like neurite extension on PC12 cells of 50 µg/mL.
Still for that read-out and setting: as for `CC(=O)N[C@@H](CSC[C@@H]1C(=O)CC[C@H]1C(=O)O)C(=O)N1CCN(c2ccccc2)CC1` [Compound 13B, (1R,2S)-2-[(2R)-2-acetylamino-3-oxo-3-{1-(4-phenyl)piperazinyl}propylthio]methyl-3-oxo-1-cyclopentanecarboxylic Acid], the figure is 1.6 µg/mL; as for `COC(=O)[C@H](CSCC(CC(=O)O)C(=O)c1ccc(C)cc1)NC(C)=O` (stereo partly drawn) [Compound 13D, 3-{(2R)-(2-acetylamino-2-methoxycarbonyl)ethylthio}methyl-4-(4-methylphenyl)-4-oxobutyric Acid], 13 µg/mL; as for `C[n+]1cccc(CCCSCC2C(=O)CCC2C(=O)O)c1.[I-]` [Compound 15B, (1R,2S)-2-[3-{3-(1-methylpyridinium iodide)}propylthio]methyl-3-oxo-1-cyclopentanecarboxylic Acid], 3.1 µg/mL.
Still for that read-out and setting: as for `COC(=O)[C@H](CSCC(CC(=O)O)C(=O)c1cccnc1)NC(C)=O` (stereo partly drawn) [Compound 32D, 3-[(2R)-(2-acetylamino-2-methoxycarbonyl)ethylthio]methyl-4-oxo-4-(3-pyridyl)butyric Acid], the figure is 3.1 µg/mL.
Still for that read-out and setting: the same measure for `CC(=O)N[C@@H](CSCC(CCC(=O)O)C(=O)c1ccccc1)C(=O)O` (stereo partly drawn) [Compound 38D, 4-[(2R)-{(2-acetylamino-2-carboxy)ethylthio}]methyl-5-oxo-5-phenylpentanoic acid]: 6.3 µg/mL.
Molecule “(1R,2S)-2-[(2R)-({2-carboxy-2-pentafluoropropionylamino)ethylthio]methyl-3-oxo-1-cyclopentanecarboxylic acid [Compound 4B]” displayed a Minimum effective dose (MED) to cause neuron-like neurite extension on PC12 cells of 3.2 µg/mL.
Same read-out and setting: the same measure for “trans-2-[(2R)-(2-carboxy-2-pentafluoropropionylamino)ethylthio]methyl-3-hydroxymethyl-1-cyclopentanone [Compound 8B]”: 0.8 µg/mL.

Tested on in a further series: not listed separately
Description: Solubility of NA32176A (physicochemical properties). As to conditions: qualitative, by solvent; listed as NA32176A. An excerpt: Physicochemical properties of the thus obtained physiologically active substance NA32176A are shown below.
With `CC(C)(CO)C(O)C(=O)NCCC(=O)NCCSCC1C(=O)CCC1C(=O)O` [Compound 1E, (1R,2S)-2-[N-(panthoyl- -alanylamido)ethylthio]methyl-3-oxo-1-cyclopentanecarboxylic Acid], the Solubility entry is recorded as “soluble in a lower alcohol, water or dimethylsulfoxide; also recorded: insoluble in hexane or petroleum ether”.
